The values that follow are results of earlier work, collected in US20050250804A1, “Pharmaceutical gel formulations” (Glenmark Pharmaceuticals Limited, priority 2004, published 2005).

One data set relates to human subjects. Particulars: repeated insult patch test, 50 human subjects, total of 15 applications; manufacturer's brochure.
Data set [1] has as its system Interleukin-2, interferon gamma, Interleukin-4 and Interleukin-10 cytokine synthesis in human T cells.

As to `CN1CCCC1=O` [Pharmasolve®, N-methyl-2-pyrrolidone], the “primary dermal irritation / sensitization” value in the data set on human subjects is reported as “neither a primary dermal irritant nor a sensitizer”. In the data set on rabbit skin, the PII is recorded as 0.5 and the “skin irritation” value is given as “practically nonirritating”.
Consider `CC[C@@H]1/C=C(\C)C[C@H](C)C[C@H](OC)[C@H]2O[C@@](O)(C(=O)C(=O)N3CCCC[C@H]3C(=O)O[C@H](/C(C)=C/[C@@H]3CC[C@H](Cl)[C@H](OC)C3)[C@H](C)[C@@H](O)CC1=O)[C@H](C)C[C@@H]2OC` [pimecrolimus, (1R,9S,12S,13R,14S,17R,18E,21 S,23S,24R,25S,27R)-12-[(1E)-2-{(1R,3R,4S)-4-chloro-3-methoxycyclohexyl}-1-methylvinyl]-17-ethyl-1,14-dihydroxy-23,25-dimethoxy-13,19,21,27-tetramethyl-11,28-dioxa-4-aza-tricyclo[22.3.1.04,9]octacos-18-ene-2,3,10,16-tetraone], for which the “concentration inhibiting IL-2, interferon gamma (Th1-type), IL-4 and IL-10 (Th2-type) cytokine synthesis” value in data set [1] is given as “nanomolar concentrations”.
